Data published in US20090317383A1, “CANCER TREATMENT METHOD” (priority 2004, published 2009).

How the values were obtained:
BT474 tumors = assay: BT474 vs. Lapatinib and Docetaxel Combination (mice with BT474 tumors); type: in vivo
Experimental: Mice with BT474 tumors were administered lapatinib alone (200 and 100 mg/kg; SID×21 Days, or 2 days and 1 day before docetaxel) and in combination with docetaxel (25 and 50 mg/kg IP, once weekly×3 weeks).
In the first experiment there were no deaths, and in the second experiment there was one death in a group of eight mice receiving docetaxel (25 mg/kg) and lapatinib (200 mg/kg×21 days). All surviving mice rapidly regained body weight when dosing was completed. The treatment groups and results follow.

[1] = test system: MCF-7 human breast cancer cells; assay: Cell growth, MTT tetrazolium dye assay; type: cell-based; settings: 1-10 uM
Experimental: (§1) The effect of a combination of lapatanib with a Bcl-2 inhibitor (HA14-1) on the growth of MCF-7 human breast cancer cells, a HER-2/neu transfected MCF-7 cell line and a tamoxifen (TAM) resistant MCF-7 cell line was examined. Cell growth was determined using the MTT tetrazolium dye assay. Cells were dosed with Lapatinib and HA14-1 as monotherapies.

[2] = test system: HER-2/neu transfected MCF-7 cell line; assay: Cell growth, MTT tetrazolium dye assay; type: cell-based, human; settings: 1-10 uM
Experimental: as §1

[3] = test system: tamoxifen (TAM) resistant MCF-7 cell line; assay: Cell growth, MTT tetrazolium dye assay; type: cell-based, human; settings: 1-10 uM
Experimental: as §1

EGFR and erbB2 kinases = settings: Rusnak et al., 2001b; Xia et al., 2002; cited from earlier work
[4] = test system: tumor cells overexpressing EGFR or erbB2; settings: Rusnak et al., 2001b; Xia et al., 2002; cited from earlier work

Question: Which results are given for CS(=O)(=O)CCNCc1ccc(-c2ccc3ncnc(Nc4ccc(OCc5cccc(F)c5)c(Cl)c4)c3c2)o1.Cc1ccc(S(=O)(=O)O)cc1 [lapatinib, N-{3-Chloro-4-[(3-fluorobenzyl)oxy]phenyl}-6-[5-({[2-(methanesulphonyl)ethyl]amino}methyl)-2-furyl]-4-quinazolinamine ditosylate monhydrate]?
Answer: % Inhibition (BT474 tumors; GW016-100 (100 mg/kg), sid × 21 days): 79%; % Inhibition (BT474 tumors; GW016-200 (200 mg/kg), sid × 21 Days): 102%; % Inhibition (BT474 tumors; GW016-200, twice weekly on consecutive days × 3 weeks): 58%; Cell growth inhibition, monotherapy [1]: dose-dependent growth inhibition; Cell growth inhibition, monotherapy [2]: dose-dependent growth inhibition; Cell growth inhibition, monotherapy [3]: dose-dependent growth inhibition

Question: Which “Kinase inhibition in human xenograft studies” value (EGFR and erbB2 kinases) does the source give for CS(=O)(=O)CCNCc1ccc(-c2ccc3ncnc(Nc4ccc(OCc5cccc(F)c5)c(Cl)c4)c3c2)o1 [GW572016, N-{3-chloro-4-[(3-fluorobenzyl)oxy]phenyl}-6-[5-({[2-(methanesulphonyl)ethyl]amino}methyl)-2-furyl]-4-quinazolinamine] here?
Answer: The value was “dose-dependent kinase inhibition”.

Question: And the “Selectivity of tumor cell inhibition” value [4]?
Answer: Its value is “selectively inhibits tumor cells overexpressing EGFR or erbB2”.

Question: For CCOC(=O)C1=C(N)Oc2ccc(Br)cc2C1C(C#N)C(=O)OCC (stereo not drawn) [HA14-1, ethyl [2-amino-6-bromo-4-(1-cyano-2-ethoxy-2oxoethyl)]4H-chromene-3-carboxylate, reference compound], which “Cell growth inhibition, monotherapy” value [1] is on record?
Answer: The value was “dose-dependent growth inhibition”.

Question: What about the “Cell growth inhibition, monotherapy” value [2] of the same compound?
Answer: The value was “dose-dependent growth inhibition”.

Question: And the “Cell growth inhibition, monotherapy” value [3]?
Answer: The value was “dose-dependent growth inhibition”.

Question: For CC(=O)O[C@@]12CO[C@@H]1C[C@H](O)[C@@]1(C)C(=O)[C@H](O)C3=C(C)[C@@H](OC(=O)[C@H](O)[C@@H](NC(=O)OC(C)(C)C)c4ccccc4)C[C@@](O)([C@@H](OC(=O)c4ccccc4)[C@H]21)C3(C)C [docetaxel, (2R,3S)-N-carboxy-3-phenylisoserine,N-tert-butyl ester, 13-ester with 5β-20-epoxy-1,2α,4,7β,10β,13α-hexahydroxytax-11-en-9-one 4-acetate 2-benzoate, trihydrate], which Body weight (BT474 tumors; 25 and 50 mg/kg, after 3 weekly doses, both experiments) is on record?
Answer: The Body weight was “caused weight loss”.

Question: And the “% Inhibition” value (BT474 tumors; Tax-25 (25 mg/kg IP), Days 3, 10, 17)?
Answer: Its value is 77%.

Question: What about the “% Inhibition” value (BT474 tumors; Tax-50 (50 mg/kg IP), Days 3, 10, 17) of the same compound?
Answer: The value was 98%.

Question: And the “Efficacy against BT474 tumors (in words)” value (BT474 tumors; docetaxel at 50 mg/kg, both experiments)?
Answer: Its value is “highly effective”.
